Experimental data as given in patent US9980486B2, “Herbicidal quinolines” (Syngenta Participations AG, priority 2014, dated 2018).

How the values were obtained:
Experiment in all cases: Experiment B1 glasshouse herbicide test, pre- and post-emergence, percentage damage
Assay type in all cases: in vivo
Conditions in all cases: evaluated after 13 days
Lolium perenne (LOLPE) = test system: Lolium perenne (LOLPE)
Protocol: (§1) Seeds of a variety of test species are sown in standard soil in pots (Lolium perenne (LOLPE), Solanum nigrum (SOLNI), Amaranthus retoflexus (AMARE), Setaria faberi (SETFA), Echinochloa crus-galli (ECHCG), Ipomoea hederacea (IPOHE)). After cultivation for one day (pre-emergence) or after 8 days cultivation (post-emergence) under controlled conditions in a glasshouse (at 24/16° C., day/night; 14 hours light; 65% humidity), the plants are sprayed with an aqueous spray solution derived from the formulation of the technical active ingredient in acetone/water (50:50) solution containing 0.5% Tween 20 (polyoxyethelyene sorbitan monolaurate, CAS RN 9005-64-5). […] The test plants are then grown in a glasshouse under controlled conditions in a glasshouse (at 24/16° C., day/night; 14 hours light; 65% humidity) and watered twice daily. After 13 days for pre and post-emergence, the test is evaluated for the percentage damage caused to the plant. The biological activities are shown in the following table on a five point scale (5=80-100%; 4=60-79%; 3=40-59%; 2=20-39%; 1=0-19%).

[1] = test system: Ipomoea hederacea (IPOHE)
Protocol: as §1

Solanum nigrum (SOLNI) = test system: Solanum nigrum (SOLNI)
Protocol: as §1

[2] = test system: Echinochloa crus-galli (ECHCG)
Protocol: as §1

[3] = test system: Amaranthus retoflexus (AMARE)
Protocol: as §1

Setaria faberi (SETFA) = test system: Setaria faberi (SETFA)
Protocol: as §1

[4] = POST Application (post-emergence, after 8 days cultivation), 1000 g/h
[5] = PRE Application (pre-emergence, after cultivation for one day), 1000 g/h
[6] = POST Application (post-emergence), applied at 250 g/ha
[7] = PRE Application (pre-emergence), applied at 250 g/ha

| SMILES | percentage damage caused to the plant, five point scale, LOLPE (Lolium perenne (LOLPE); [4]) | percentage damage caused to the plant, five point scale, LOLPE (Lolium perenne (LOLPE); [5]) | percentage damage caused to the plant, five point scale, IPOHE [1, 4] | percentage damage caused to the plant, five point scale, IPOHE [1, 5] | percentage damage caused to the plant, five point scale, SOLNI (Solanum nigrum (SOLNI); [4]) | percentage damage caused to the plant, five point scale, SOLNI (Solanum nigrum (SOLNI); [5]) | percentage damage caused to the plant, five point scale, ECHCG [2, 4] | percentage damage caused to the plant, five point scale, ECHCG [2, 5] | percentage damage caused to the plant, five point scale, AMARE [3, 4] | percentage damage caused to the plant, five point scale, AMARE [3, 5] | percentage damage caused to the plant, five point scale, SETFA (Setaria faberi (SETFA); [4]) | percentage damage caused to the plant, five point scale, SETFA (Setaria faberi (SETFA); [5]) | other results |
| --- | --- | --- | --- | --- | --- | --- | --- | --- | --- | --- | --- | --- | --- |
| Cc1c(C(=O)Nc2nnnn2C)cc2cccnc2c1-c1ccc(S(C)(=O)=O)cc1 [Compound 1.031, 7-methyl-8-(4-methylsulfonylphenyl)-N-(1-methyltetrazol-5-yl)quinoline-6-carboxamide] | 5 (5=80-100%) | 5 (5=80-100%) | 5 (5=80-100%) | 5 (5=80-100%) | 5 (5=80-100%) | 5 (5=80-100%) | 5 (5=80-100%) | 5 (5=80-100%) | 5 (5=80-100%) | 5 (5=80-100%) | 5 (5=80-100%) | 5 (5=80-100%) |  |
| CSc1c(C(=O)Nc2nnnn2C)cc2cccnc2c1-c1ccccc1 [Compound 1.032, 7-methylsulfanyl-N-(1-methyltetrazol-5-yl)-8-phenyl-quinoline-6-carboxamide] | 5 (5=80-100%) | 5 (5=80-100%) | 5 (5=80-100%) | 5 (5=80-100%) | 5 (5=80-100%) | 5 (5=80-100%) | 5 (5=80-100%) | 5 (5=80-100%) | 5 (5=80-100%) | 5 (5=80-100%) | 5 (5=80-100%) | 5 (5=80-100%) |  |
| O=C(Nc1nnnn1-c1ccccc1)c1cc2cccnc2c(-c2ccccc2)c1C(F)(F)F [Compound 1.033] | 1 (1=0-19%) | 1 (1=0-19%) | 5 (5=80-100%) | 3 (3=40-59%) | 5 (5=80-100%) | 4 (4=60-79%) | 2 (2=20-39%) | 1 (1=0-19%) | 5 (5=80-100%) | 5 (5=80-100%) | 2 (2=20-39%) | 1 (1=0-19%) |  |
| COc1ccc(-c2c(C)c(C(=O)Nc3nnnn3C)cc3cccnc23)cc1 [Compound 1.034] | 4 (4=60-79%) | 5 (5=80-100%) | 5 (5=80-100%) | 5 (5=80-100%) | 5 (5=80-100%) | 5 (5=80-100%) | 5 (5=80-100%) | 5 (5=80-100%) | 5 (5=80-100%) | 5 (5=80-100%) | 5 (5=80-100%) | 5 (5=80-100%) |  |
| Cc1c(C(=O)Nc2nnnn2C)cc2cccnc2c1-c1ccc(F)cc1 [Compound 1.035] | 4 (4=60-79%) | 5 (5=80-100%) | 5 (5=80-100%) | 5 (5=80-100%) | 5 (5=80-100%) | 5 (5=80-100%) | 5 (5=80-100%) | 5 (5=80-100%) | 5 (5=80-100%) | 5 (5=80-100%) | 5 (5=80-100%) | 5 (5=80-100%) |  |
| Cc1c(C(=O)Nc2nnnn2C)cc2cccnc2c1-c1ccc(Cl)cc1 [Compound 1.036] | 4 (4=60-79%) | 4 (4=60-79%) | 5 (5=80-100%) | 5 (5=80-100%) | 5 (5=80-100%) | 5 (5=80-100%) | 5 (5=80-100%) | 5 (5=80-100%) | 5 (5=80-100%) | 5 (5=80-100%) | 5 (5=80-100%) | 5 (5=80-100%) |  |
| COc1ccc(-c2c(C)c(C(=O)Nc3nnnn3C)cc3ccc(C)nc23)cc1 [Compound 1.037] | 5 (5=80-100%) | 3 (3=40-59%) | 5 (5=80-100%) | 4 (4=60-79%) | 5 (5=80-100%) | 5 (5=80-100%) | 5 (5=80-100%) | 5 (5=80-100%) | 5 (5=80-100%) | 5 (5=80-100%) | 5 (5=80-100%) | 5 (5=80-100%) |  |
| Cc1ccc2cc(C(=O)Nc3nnnn3C)c(C)c(-c3ccc(S(C)(=O)=O)cc3)c2n1 [Compound 1.038] | 5 (5=80-100%) | 4 (4=60-79%) | 5 (5=80-100%) | 4 (4=60-79%) | 5 (5=80-100%) | 5 (5=80-100%) | 5 (5=80-100%) | 5 (5=80-100%) | 5 (5=80-100%) | 5 (5=80-100%) | 5 (5=80-100%) | 5 (5=80-100%) |  |
| Cn1nnnc1NC(=O)c1cc2cccnc2c(-c2ccccc2)c1[S+](C)[O-] (stereo not drawn) [Compound 1.045] |  |  |  |  |  |  |  |  |  |  |  |  | percentage damage caused to the plant, five point scale, LOLPE (Lolium perenne (LOLPE); [6]): 3 (3=40-59%); percentage damage caused to the plant, five point scale, LOLPE (Lolium perenne (LOLPE); [7]): 1 (1=0-19%); percentage damage caused to the plant, five point scale, IPOHE [1, 6]: 5 (5=80-100%); percentage damage caused to the plant, five point scale, IPOHE [1, 7]: 2 (2=20-39%); percentage damage caused to the plant, five point scale, SOLNI (Solanum nigrum (SOLNI); [6]): 5 (5=80-100%); percentage damage caused to the plant, five point scale, SOLNI (Solanum nigrum (SOLNI); [7]): 4 (4=60-79%); percentage damage caused to the plant, five point scale, ECHCG [2, 6]: 5 (5=80-100%); percentage damage caused to the plant, five point scale, ECHCG [2, 7]: 4 (4=60-79%); percentage damage caused to the plant, five point scale, AMARE [3, 6]: 5 (5=80-100%); percentage damage caused to the plant, five point scale, AMARE [3, 7]: 4 (4=60-79%); percentage damage caused to the plant, five point scale, SETFA (Setaria faberi (SETFA); [6]): 5 (5=80-100%); percentage damage caused to the plant, five point scale, SETFA (Setaria faberi (SETFA); [7]): 1 (1=0-19%) |
